Results reported in the supplement of paper PMC10307832.

What was measured:
Experiment in all cases: relative viability (nuclei count vs DMSO), 5 days (fraction); higher = more cells survive
CX-5461 + Lapatinib = compound: Cc1cnc(CNC(=O)c2c(=O)c3ccc(N4CCCN(C)CC4)nc3n3c2sc2ccccc23)cn1 [CX-5461] + CS(=O)(=O)CCNCc1ccc(-c2ccc3ncnc(Nc4ccc(OCc5cccc(F)c5)c(Cl)c4)c3c2)o1 [Lapatinib] (partner 2 µM)
Method in brief: (§1)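 Relative viability equals treated-well nuclei counts divided by vehicle-well nuclei counts. Counts came from 4× images of lung cancer cell lines grown in 1536-well plates for 5 days after pin-tool dosing on the day after seeding. Dosing used one drug alone or a fixed anchor-drug dose plus five library-drug doses (not always all listed) in √10 steps, and values are medians of duplicate plates.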

IMD-0354 + Decitabine = compound: O=C(Nc1cc(C(F)(F)F)cc(C(F)(F)F)c1)c1cc(Cl)ccc1O [IMD-0354] + Nc1ncn([C@H]2C[C@H](O)[C@@H](CO)O2)c(=O)n1 [Decitabine] (partner 2 µM)
Method in brief: as §1

CX-5461 + Olaparib = compound: Cc1cnc(CNC(=O)c2c(=O)c3ccc(N4CCCN(C)CC4)nc3n3c2sc2ccccc23)cn1 [CX-5461] + O=C(c1cc(Cc2n[nH]c(=O)c3ccccc23)ccc1F)N1CCN(C(=O)C2CC2)CC1 [Olaparib] (partner 8 µM)
Method in brief: as §1

IMD-0354 + Tozasertib = compound: O=C(Nc1cc(C(F)(F)F)cc(C(F)(F)F)c1)c1cc(Cl)ccc1O [IMD-0354] + Cc1cc(Nc2cc(N3CCN(C)CC3)nc(Sc3ccc(NC(=O)C4CC4)cc3)n2)n[nH]1 [Tozasertib] (partner 0.1 µM)
Method in brief: as §1

| Cell Line | relative viability (CX-5461 + Lapatinib; first compound 0.01 µM) | relative viability (CX-5461 + Lapatinib; first compound 0.03162 µM) | relative viability (CX-5461 + Lapatinib; first compound 0.1 µM) | relative viability (CX-5461 + Lapatinib; first compound 0.3162 µM) | relative viability (CX-5461 + Lapatinib; first compound 1 µM) | relative viability (IMD-0354 + Decitabine; first compound 0.04 µM) | relative viability (IMD-0354 + Decitabine; first compound 0.1265 µM) | relative viability (IMD-0354 + Decitabine; first compound 0.4 µM) | relative viability (IMD-0354 + Decitabine; first compound 1.265 µM) | relative viability (IMD-0354 + Decitabine; first compound 4 µM) | relative viability (CX-5461 + Olaparib; first compound 0.01 µM) | relative viability (CX-5461 + Olaparib; first compound 0.03162 µM) | relative viability (CX-5461 + Olaparib; first compound 0.1 µM) | relative viability (CX-5461 + Olaparib; first compound 0.3162 µM) | relative viability (CX-5461 + Olaparib; first compound 1 µM) | relative viability (IMD-0354 + Tozasertib; first compound 0.04 µM) | relative viability (IMD-0354 + Tozasertib; first compound 0.1265 µM) | relative viability (IMD-0354 + Tozasertib; first compound 0.4 µM) | relative viability (IMD-0354 + Tozasertib; first compound 1.265 µM) | relative viability (IMD-0354 + Tozasertib; first compound 4 µM) |
| --- | --- | --- | --- | --- | --- | --- | --- | --- | --- | --- | --- | --- | --- | --- | --- | --- | --- | --- | --- | --- |
| BEN | 0.77 | 0.647 | 0.821 | 0.487 | 0.54 | 0.739 | 0.741 | 0.567 | 0.391 | 0.347 | 1.12 | 1.06 | 1.2 | 1.02 | 0.737 | 0.53 | 0.51 | 0.329 | 0.468 | 0.452 |
| COR-L23 | 1.08 | 0.833 | 0.674 | 0.804 | 0.414 | 0.402 | 0.443 | 0.339 | 0.141 | 0.146 | 0.36 | 0.338 | 0.299 | 0.3 | 0.185 | 0.197 | 0.159 | 0.175 | 0.0719 | 0.101 |
| COR-L 105 | 0.363 | 0.405 | 0.376 | 0.265 | 0.267 | 0.674 | 0.685 | 0.576 | 0.619 | 0.318 | 0.658 | 0.654 | 0.718 | 0.675 | 0.447 | 0.379 | 0.311 | 0.394 | 0.341 | 0.207 |
| EKVX | 0.228 | 0.206 | 0.196 |  | 0.198 | 0.294 | 0.316 |  | 0.36 | 0.155 | 0.931 | 0.901 | 0.983 |  | 0.73 | 0.382 | 0.397 | 0.269 | 0.456 | 0.149 |
| EMC-BAC-2 | 0.861 | 1.04 | 0.88 | 0.693 | 0.588 | 0.955 | 0.994 | 0.696 |  | 0.282 | 0.452 | 0.476 | 0.383 | 0.343 | 0.324 | 0.276 | 0.301 | 0.24 | 0.296 | 0.224 |
| EPLC-272H | 0.936 | 1.12 | 0.9 |  | 1.02 | 0.372 | 0.341 | 0.362 | 0.337 | 0.288 | 0.712 | 0.871 | 0.785 | 0.74 | 0.493 | 0.256 | 0.241 | 0.16 | 0.24 | 0.113 |
| H3255 | 0.237 | 0.236 | 0.263 | 0.167 | 0.236 | 0.52 | 0.595 | 0.504 | 0.529 | 0.3 | 0.558 | 0.543 | 0.578 | 0.531 | 0.497 | 0.631 | 0.602 | 0.493 | 0.586 | 0.387 |
| HARA | 0.904 | 0.921 | 0.84 | 0.861 | 0.348 | 0.5 | 0.665 | 0.399 | 0.189 | 0.251 | 0.82 | 0.67 | 0.793 | 0.876 | 0.556 | 0.102 | 0.132 | 0.105 | 0.0599 | 0.0875 |
| HCC-15 | 0.886 | 0.914 | 0.869 | 0.264 | 0.605 | 0.68 | 0.614 | 0.292 | 0.108 | 0.161 | 0.607 | 0.721 | 0.625 | 0.693 | 0.538 | 0.331 | 0.379 | 0.31 | 0.17 | 0.098 |
| HCC-44 | 0.972 | 1.01 | 0.994 | 1.01 | 0.69 | 0.971 | 0.939 | 0.813 | 0.625 | 0.449 | 0.966 | 1.04 | 1.03 | 1 | 1.01 | 0.955 | 0.899 | 0.706 | 0.351 | 0.17 |
| HCC-78 | 1 | 0.916 | 0.734 | 0.244 | 0.565 | 0.714 | 0.619 | 0.583 | 0.6 | 0.426 | 0.977 | 0.856 | 0.949 | 0.816 | 0.738 | 0.467 | 0.598 | 0.3 | 0.368 | 0.231 |
| HCC-366 | 1.14 | 1 | 0.812 | 0.04 | 0.0982 | 0.423 | 0.395 | 0.248 | 0.0815 | 0.0425 | 0.444 | 0.444 | 0.429 | 0.315 | 0.273 | 0.122 | 0.0913 | 0.168 | 0.0335 | 0.031 |
| HCC-827 | 0.198 | 0.223 | 0.22 | 0.203 | 0.19 | 0.369 | 0.346 | 0.296 | 0.19 | 0.196 | 0.703 | 0.69 | 0.767 | 0.644 | 0.611 | 0.437 | 0.458 | 0.353 | 0.353 | 0.182 |
| HOP-62 | 1.11 | 1.12 | 1.23 | 0.167 | 0.908 | 0.217 | 0.226 | 0.208 | 0.17 | 0.0936 | 0.315 | 0.355 | 0.287 |  | 0.254 | 0.46 | 0.374 | 0.263 | 0.228 | 0.108 |
| LC-2-ad | 0.971 | 1.02 | 0.816 | 0.685 | 0.476 | 0.876 | 0.698 | 0.5 | 0.322 | 0.199 | 0.643 | 0.694 | 0.689 | 0.667 | 0.617 | 0.484 | 0.528 | 0.377 | 0.243 | 0.257 |
| LCLC-97TM1 | 1.17 | 1.02 | 0.871 |  | 0.366 | 0.232 | 0.257 | 0.199 | 0.162 | 0.115 | 0.313 | 0.503 | 0.466 | 0.333 | 0.298 | 0.2 | 0.223 | 0.171 | 0.18 | 0.116 |
| LK-2 |  | 1.06 | 1.01 |  | 0.817 | 0.292 | 0.315 |  | 0.141 | 0.196 | 0.664 | 0.957 | 0.918 |  | 0.497 | 0.182 | 0.179 | 0.207 | 0.175 | 0.131 |
